Measured values published in patent US6818208B2, “Use of a flavonoid extract of ginkgo biloba substantially devoid of terpenes, in the dentibuccal field, and composition containing such extract” (Societe de Conseils de Recherches et d'Applications …, priority 1996, dated 2004).

Target: T1, human leucocyte elastase (HLE) (Homo sapiens, UniProt P08246)
T1 sequence (P08246 30-267): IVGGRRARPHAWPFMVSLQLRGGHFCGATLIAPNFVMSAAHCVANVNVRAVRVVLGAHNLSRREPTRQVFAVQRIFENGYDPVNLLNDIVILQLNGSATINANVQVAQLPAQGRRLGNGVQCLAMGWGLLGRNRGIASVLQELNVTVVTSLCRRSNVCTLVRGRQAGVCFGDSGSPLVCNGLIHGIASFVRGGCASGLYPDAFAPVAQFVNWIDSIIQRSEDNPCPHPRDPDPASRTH
Test: Anti-elastasic activity ex vivo on frozen sections of human gums (elastic fibres remaining, morphometric quantification by image analysis)
Assay type: biochemical
Conditions: HLE + PMSF, HLE 10 μm/ml, two hours
Procedure: The purpose of this study is therefore to study the anti-elastasic activity of an extract as defined above, alone or in combination with ceramides. This activity is evaluated on sections of human gums.
The ceramides used, of vegetable origin, are obtained according to a process as described in Patent FR 2676936 incorporated by way of reference, a process which comprises exctraction from wheat, using a polar extraction solvent followed by recrystallization from an organic solvent. They are essentially composed of glucosylceramides and ceramides.
For this purpose, the elastic fibre network is subjected to human leucocyte elastase (HLE), with or without an anti-elastasic product. The elastic fibres remaining after enzymatic action are stained with (+) catechin.
Frozen sections of 8 μm are carried out from 5 samples obtained from biopsies of normal buccal mucosa, taken during dental extractions.
In a first stage, the concentration in human leucocyte elastase required for the destruction of elastic fibres is determined: leucocyte elastase is applied to the skin sections for two hours at ambient temperature and in a humid atmosphere; after fixing in acetone and dehydration in ethanol at […], the remaining elastic fibres are stained with (+) catechin. Total destruction of the elastic fibres is obtained in the presence of 10 μm/ml of human leucocyte elastase.
The anti-elastasic activity of the products is compared with that of (PMSF), a powerful elastase inhibitor.

With `O=S(=O)(F)Cc1ccccc1` [PMSF] the “% of elastic fibres remaining after treatment with human leucocyte elastase” value (“% of elastic fibres remaining” below) (lower corium dermis) was 70%, the “% of elastic fibres remaining” value (medium corium dermis) was 55% and the “% of elastic fibres remaining” value (upper corium dermis) was 25%.
